Experimental data: ChEMBL document CHEMBL1938349 (Bioorg Med Chem, 2012)

What was measured:
[1] = molecular target: T1, 5-hydroxytryptamine receptor 1A (Homo sapiens, UniProt P08908); experiment: Displacement of [3H]8-OH-DPAT from human 5HT1A receptor by liquid scintillation counting
T1 sequence (P08908 whole entry): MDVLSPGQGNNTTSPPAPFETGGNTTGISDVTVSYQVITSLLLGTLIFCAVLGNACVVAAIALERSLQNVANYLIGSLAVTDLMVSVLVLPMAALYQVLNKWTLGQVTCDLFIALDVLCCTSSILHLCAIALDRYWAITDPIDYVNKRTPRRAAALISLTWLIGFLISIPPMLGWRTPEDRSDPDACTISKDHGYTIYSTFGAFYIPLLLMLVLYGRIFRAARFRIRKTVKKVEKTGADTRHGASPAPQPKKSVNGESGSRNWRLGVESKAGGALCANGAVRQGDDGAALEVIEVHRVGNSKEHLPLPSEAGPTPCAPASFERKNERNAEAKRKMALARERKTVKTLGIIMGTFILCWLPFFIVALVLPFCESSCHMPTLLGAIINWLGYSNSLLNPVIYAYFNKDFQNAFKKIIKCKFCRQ

[2] = molecular target: 5-hydroxytryptamine receptor 2A (Homo sapiens, UniProt P28223); experiment: Displacement of [3H]DOI from human 5HT2A receptor after 1 hr by liquid scintillation counting
D(2) dopamine receptor = D(2) dopamine receptor (Homo sapiens, UniProt P14416); experiment: Displacement of [3H]N-methylspiperone from human dopamine D2 receptor by liquid scintillation counting
D(4) dopamine receptor = molecular target: T2, D(4) dopamine receptor (Rattus norvegicus, UniProt P30729); experiment: Displacement of [3H]N-methylspiperone from rat dopamine D4 receptor by liquid scintillation counting
T2 sequence (P30729 whole entry): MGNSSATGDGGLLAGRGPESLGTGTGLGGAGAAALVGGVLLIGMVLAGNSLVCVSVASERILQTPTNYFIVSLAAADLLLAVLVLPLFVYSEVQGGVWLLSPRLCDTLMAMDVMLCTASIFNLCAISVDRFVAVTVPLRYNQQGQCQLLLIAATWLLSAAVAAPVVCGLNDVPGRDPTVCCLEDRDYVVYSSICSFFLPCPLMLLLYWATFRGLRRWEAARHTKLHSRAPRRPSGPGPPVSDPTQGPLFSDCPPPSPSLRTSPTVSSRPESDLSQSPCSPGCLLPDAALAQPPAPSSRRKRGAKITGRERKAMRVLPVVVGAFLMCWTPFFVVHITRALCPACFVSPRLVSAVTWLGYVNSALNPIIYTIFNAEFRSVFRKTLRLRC

D(3) dopamine receptor = D(3) dopamine receptor (Homo sapiens, UniProt P35462); experiment: Displacement of [3H]N-methylspiperone from human dopamine D3 receptor by liquid scintillation counting
[3] = molecular target: T3, 5-hydroxytryptamine receptor 2C (Rattus norvegicus, UniProt P08909); experiment: Displacement of [3H]mesulergine from rat 5HT2C receptor by liquid scintillation counting
T3 sequence (P08909 whole entry): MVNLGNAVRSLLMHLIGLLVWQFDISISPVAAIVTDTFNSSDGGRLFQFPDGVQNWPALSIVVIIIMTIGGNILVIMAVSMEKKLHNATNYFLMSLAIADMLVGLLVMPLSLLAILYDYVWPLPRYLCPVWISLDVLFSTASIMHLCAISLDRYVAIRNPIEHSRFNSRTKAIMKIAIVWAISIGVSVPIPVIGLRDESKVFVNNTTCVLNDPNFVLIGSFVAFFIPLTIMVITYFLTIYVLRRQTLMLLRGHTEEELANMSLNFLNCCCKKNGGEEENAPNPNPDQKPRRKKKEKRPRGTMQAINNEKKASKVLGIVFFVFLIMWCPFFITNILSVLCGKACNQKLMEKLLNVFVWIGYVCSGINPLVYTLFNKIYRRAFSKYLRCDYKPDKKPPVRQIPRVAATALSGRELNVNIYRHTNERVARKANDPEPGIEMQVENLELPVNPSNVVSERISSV

Histamine H1 receptor = Histamine H1 receptor (Homo sapiens, UniProt P35367)
Description: Displacement of [3H]pyrilamine from human H1 receptor by liquid scintillation counting

[4] = molecular target: T4, Alpha-2C adrenergic receptor (Homo sapiens, UniProt P18825); experiment: Displacement of [3H]clonidine from human Alpha-2C receptor by liquid scintillation counting
T4 sequence (P18825 whole entry): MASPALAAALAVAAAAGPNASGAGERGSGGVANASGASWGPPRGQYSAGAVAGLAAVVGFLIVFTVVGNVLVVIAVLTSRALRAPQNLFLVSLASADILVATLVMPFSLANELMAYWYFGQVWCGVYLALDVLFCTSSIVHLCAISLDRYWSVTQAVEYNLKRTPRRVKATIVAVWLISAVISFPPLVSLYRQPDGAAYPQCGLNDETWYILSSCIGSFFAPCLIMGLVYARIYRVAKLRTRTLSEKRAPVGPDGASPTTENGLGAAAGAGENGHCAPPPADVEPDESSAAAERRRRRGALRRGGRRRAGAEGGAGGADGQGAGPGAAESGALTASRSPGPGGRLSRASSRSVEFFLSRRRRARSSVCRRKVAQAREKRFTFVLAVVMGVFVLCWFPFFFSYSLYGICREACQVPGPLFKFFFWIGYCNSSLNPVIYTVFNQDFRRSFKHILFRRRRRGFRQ

Chain of D(2) dopamine receptor (P14416 whole entry): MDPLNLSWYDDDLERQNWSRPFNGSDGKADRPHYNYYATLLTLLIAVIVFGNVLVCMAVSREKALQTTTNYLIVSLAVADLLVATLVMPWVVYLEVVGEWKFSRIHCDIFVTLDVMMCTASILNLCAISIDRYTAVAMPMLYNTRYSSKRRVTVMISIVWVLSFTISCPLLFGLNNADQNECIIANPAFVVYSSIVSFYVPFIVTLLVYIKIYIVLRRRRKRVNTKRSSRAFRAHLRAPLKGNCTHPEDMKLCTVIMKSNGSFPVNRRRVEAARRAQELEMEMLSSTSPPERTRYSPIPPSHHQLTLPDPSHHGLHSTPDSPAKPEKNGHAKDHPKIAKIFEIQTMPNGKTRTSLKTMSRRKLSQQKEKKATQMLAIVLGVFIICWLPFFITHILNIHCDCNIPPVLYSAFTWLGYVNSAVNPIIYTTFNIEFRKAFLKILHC
Chain of 5-hydroxytryptamine receptor 2A (P28223 whole entry): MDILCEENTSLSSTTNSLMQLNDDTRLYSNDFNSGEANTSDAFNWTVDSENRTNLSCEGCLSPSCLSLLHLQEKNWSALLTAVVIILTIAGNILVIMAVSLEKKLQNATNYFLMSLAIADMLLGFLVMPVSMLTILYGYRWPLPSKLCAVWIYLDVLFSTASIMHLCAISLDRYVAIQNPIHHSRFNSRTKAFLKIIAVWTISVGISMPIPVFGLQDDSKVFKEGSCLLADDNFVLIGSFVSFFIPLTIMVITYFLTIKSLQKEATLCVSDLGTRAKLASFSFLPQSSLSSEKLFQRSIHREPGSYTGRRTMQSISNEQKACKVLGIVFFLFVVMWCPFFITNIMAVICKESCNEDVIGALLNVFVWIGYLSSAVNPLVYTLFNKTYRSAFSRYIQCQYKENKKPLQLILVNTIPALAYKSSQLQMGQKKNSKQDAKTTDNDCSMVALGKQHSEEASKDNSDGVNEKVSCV
Chain of D(3) dopamine receptor (P35462 whole entry): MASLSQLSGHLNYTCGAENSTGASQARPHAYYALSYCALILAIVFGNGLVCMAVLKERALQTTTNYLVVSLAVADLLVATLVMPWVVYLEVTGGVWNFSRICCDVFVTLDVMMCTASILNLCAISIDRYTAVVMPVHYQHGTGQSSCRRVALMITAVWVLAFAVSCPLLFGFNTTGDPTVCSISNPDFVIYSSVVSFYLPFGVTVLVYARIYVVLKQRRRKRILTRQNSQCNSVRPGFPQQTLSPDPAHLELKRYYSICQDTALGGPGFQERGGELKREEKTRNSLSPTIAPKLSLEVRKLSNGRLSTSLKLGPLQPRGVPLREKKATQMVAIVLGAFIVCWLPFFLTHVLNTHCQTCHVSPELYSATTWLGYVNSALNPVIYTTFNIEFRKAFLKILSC
Chain of Histamine H1 receptor (P35367 whole entry): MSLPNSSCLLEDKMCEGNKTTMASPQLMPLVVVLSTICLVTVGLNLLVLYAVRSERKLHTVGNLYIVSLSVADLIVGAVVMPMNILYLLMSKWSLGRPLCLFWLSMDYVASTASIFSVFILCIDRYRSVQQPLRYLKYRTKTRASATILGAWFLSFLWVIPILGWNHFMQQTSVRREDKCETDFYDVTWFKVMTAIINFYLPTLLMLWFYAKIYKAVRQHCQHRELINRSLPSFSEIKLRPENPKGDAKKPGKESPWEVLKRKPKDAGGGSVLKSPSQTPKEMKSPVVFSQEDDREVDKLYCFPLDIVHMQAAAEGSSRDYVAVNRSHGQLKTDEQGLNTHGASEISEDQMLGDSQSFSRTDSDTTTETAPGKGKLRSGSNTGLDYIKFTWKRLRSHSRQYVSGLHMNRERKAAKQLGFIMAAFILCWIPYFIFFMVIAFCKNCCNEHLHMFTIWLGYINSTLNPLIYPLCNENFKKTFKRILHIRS

SMILES	Ki [1]	Ki [2]	Ki (D(2) dopamine receptor)	Ki (D(4) dopamine receptor)	Ki (D(3) dopamine receptor)	Ki [3]	Ki (Histamine H1 receptor)	Ki [4]
Fc1ccc(OCCCN2CCN(c3ccc(Cl)cc3)CC2)cc1	80 nM	60 nM	390 nM	6.9 nM	885 nM	–	–	–
Fc1ccc(SCCCN2CCC(c3ccc(Cl)cc3)CC2)cc1	454 nM	112 nM	185 nM	39 nM	130 nM	> 10000 nM	–	–
Fc1ccc(OCCCN2CCN(c3ccccc3)CC2)cc1	24 nM	57.6 nM	37 nM	7.4 nM	207 nM	–	62.9 nM	–
Fc1ccc(SCCCN2CCN(c3ccc(C(F)(F)F)cc3)CC2)cc1	1080 nM	1130 nM	4750 nM	89 nM	544 nM	–	–	–
[O-][S+](CCCN1CCC(c2ccc(Cl)cc2)CC1)c1ccc(F)cc1 (stereo not drawn)	613 nM	222 nM	998 nM	35 nM	243 nM	> 10000 nM	–	–
Fc1ccc(SCCCN2CCN(c3ccccn3)CC2)cc1	–	–	–	–	–	–	212 nM	45.1 nM
Fc1ccc(OCCCN2CCN(c3ncccn3)CC2)cc1	23 nM	23 nM	636 nM	4.2 nM	778 nM	> 10000 nM	–	–
Fc1ccc(SCCCN2CCN(c3ccc(Cl)cc3)CC2)cc1	166 nM	53 nM	211 nM	8.7 nM	422 nM	–	–	–
c1ccc(OCCCN2CCN(c3ccccc3)CC2)cc1	25 nM	46 nM	119 nM	4.5 nM	79.3 nM	–	67.9 nM	–
OC1(c2ccc(Cl)cc2)CCN(CCCOc2ccc(F)cc2)CC1	–	–	5.3 nM	–	182 nM	–	–	–
Fc1ccc(CCCCN2CCN(c3ccccn3)CC2)cc1	–	–	–	–	–	–	167 nM	308 nM
Fc1ccc(OCCCN2CCC(c3ccc(Cl)cc3)CC2)cc1	169 nM	121 nM	41 nM	9.5 nM	696 nM	> 10000 nM	–	–
Fc1ccc(SCCCN2CCN(c3ncccn3)CC2)cc1	93.1 nM	27 nM	424 nM	21 nM	68 nM	8830 nM	–	–
Clc1ccc(N2CCN(CCCOc3ccccc3)CC2)cc1	154 nM	–	447 nM	5.6 nM	726 nM	–	–	–
O=C(CCCN1CCN(c2ncccn2)CC1)c1ccc(F)cc1	–	–	–	–	–	–	–	80 nM
Fc1ccc(OCCCN2CCN(c3ccccn3)CC2)cc1	–	–	–	–	–	–	262 nM	–
Fc1ccc(CCCCN2CCN(c3ccc(Cl)cc3)CC2)cc1	112 nM	81 nM	–	7.8 nM	261 nM	–	–	–
